≈ marks a conversion by molar mass, not a printed value.

We go through one compound from article PMC7424564 (Pharmacology Research & Perspectives, 2020).

Series [1] is described as follows: pH dependent solubility. It is filed as physicochemical.
The nature of series [2]: In vitro metabolism in liver microsomes. It counts as in vitro ADME. As to conditions: human liver microsomes.
The nature of series [3]: In vivo pharmacokinetics in mice. The conditions noted are these: male, BALB/c, mouse, plasma.
In series [4] the test system is SCW induced arthritis. Briefly: Streptococcal cell wall. It is filed as in vivo, Sprague Dawley rats.
Series [5] concerns TMD8 cells. Briefly: Cell washout cytotoxicity assay. As to conditions: TMD‐8 cells; 25 nmol/L.
The test system of series [6] is IL‐6 secretion. Briefly: Cytokine ELISA, IL‐6 secretion in TMD8 cells. The conditions noted are these: read-out: IC50 IL‐6 secretion, TMD‐8 cells, 16 hours. (In general: In an ELISA, binding on a coated surface is turned into a signal by an enzyme label.)

In general, solubility refers to the concentration that dissolves in the medium under given conditions. A low value points to a poorly soluble substance. What is called clearance is the volume of plasma or blood freed of the substance per unit of time. For orientation: half-life means the time in which the quantity being followed falls by half. The low end stands for rapid decline, the high end for slow decline. By AUC is commonly meant concentration integrated over time. Low readings indicate less exposure, high ones more exposure. The term Cmax denotes the peak of the concentration-time curve. By Tmax is commonly meant the time at which the peak concentration occurs. As a reminder, the IC50 is the midpoint of a concentration-inhibition curve. Regarding `C=CC(=O)N1CC2CC(n3nc(-c4ccc(C(=O)Nc5ccccn5)cc4)c4c(N)ncnc43)CC2C1` (centres unmarked) [ZYBT1, 4‐(1‐(2‐acryloyloctahydrocyclopenta[c]pyrrol‐5‐yl)‐4‐amino‐1H‐pyrazolo[3,4‐d]pyrimidin‐3‐yl)‐N‐(pyridin‐2‐yl)benzamide], the solubility in series [1] (buffer, pH 4.5, aqueous buffer) is under 2 µM. This compound showed a solubility in series [1] (buffer, pH 6.8, aqueous buffer) of under 2 µM. In series [1] (pH 1.2, simulated gastric fluid), the solubility was 500 µM (≈ 247 µg/mL). In addition, in series [1] (purified water, water), the solubility was under 2 µM. The mClint in series [2] is on record as 1.28 mL/min/gm liver. For the same compound, the “% metabolized” value in series [2] (1 µmol/L, 30 minutes, NADPH) is reported as at most 32%. Further, in series [3] (iv, 1 mg/kg), the clearance was 39.5 mL/min/kg and the half-life is 24.6 min. In addition, in series [3] (po, 3 mg/kg), the exposure (AUC) came to 590 ng·h/mL, the Cmax stood at 703 ng/mL, the Tmax was found to be 15 min and the half-life was 45.6 min. In series [4] (75 mg/kg dose), the “inhibition of paw volume” value is recorded as “complete inhibition of paw volume”. Moreover, the “serum levels of IL‐6” value in series [4] (0.2, 1, 5, 25, 75 mg/kg) was “reduced with the treatment in a dose‐dependent manner”. For the same compound, the body weight entry in series [4] (0.2, 1, 5, 25, 75 mg/kg, SCW control animals lost weight) is listed as “restored the body weight in a dose dependent manner”. In series [5], the “time for which cell killing is maintained after drug wash‐off” value was “at least 48 hours”. In addition, the IC50 in series [6] came to 0.4 nM.
